Key:
[1] = molecular target: T1, Serine/threonine-protein kinase PLK4 (Homo sapiens, UniProt O00444); assay: Inhibition of PLK4 (unknown origin)
T1 sequence (O00444 whole entry): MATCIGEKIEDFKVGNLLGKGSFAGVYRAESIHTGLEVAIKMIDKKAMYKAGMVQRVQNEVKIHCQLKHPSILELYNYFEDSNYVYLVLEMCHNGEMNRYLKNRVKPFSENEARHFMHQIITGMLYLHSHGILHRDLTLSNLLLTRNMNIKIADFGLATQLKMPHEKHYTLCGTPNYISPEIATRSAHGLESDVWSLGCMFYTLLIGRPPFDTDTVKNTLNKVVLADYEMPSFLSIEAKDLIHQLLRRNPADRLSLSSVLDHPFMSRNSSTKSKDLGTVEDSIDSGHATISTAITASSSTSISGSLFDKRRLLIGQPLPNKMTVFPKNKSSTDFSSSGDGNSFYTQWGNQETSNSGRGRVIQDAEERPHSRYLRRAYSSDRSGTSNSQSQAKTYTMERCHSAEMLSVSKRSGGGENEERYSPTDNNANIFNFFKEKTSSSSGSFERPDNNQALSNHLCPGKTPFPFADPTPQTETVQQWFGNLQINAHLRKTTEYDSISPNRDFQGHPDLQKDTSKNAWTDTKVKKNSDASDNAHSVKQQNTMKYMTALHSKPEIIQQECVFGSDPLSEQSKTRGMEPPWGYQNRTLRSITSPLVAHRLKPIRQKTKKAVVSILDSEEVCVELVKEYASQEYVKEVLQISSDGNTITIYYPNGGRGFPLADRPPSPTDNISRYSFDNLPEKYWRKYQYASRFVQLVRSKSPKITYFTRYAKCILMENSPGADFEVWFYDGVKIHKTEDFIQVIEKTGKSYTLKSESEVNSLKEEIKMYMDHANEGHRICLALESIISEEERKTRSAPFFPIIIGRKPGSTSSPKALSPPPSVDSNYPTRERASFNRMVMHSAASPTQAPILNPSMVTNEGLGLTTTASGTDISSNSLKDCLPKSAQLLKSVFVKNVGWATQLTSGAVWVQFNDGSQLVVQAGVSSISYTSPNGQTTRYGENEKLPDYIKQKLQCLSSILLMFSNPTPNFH

[2] = molecular target: T2, Receptor-type tyrosine-protein kinase FLT3 (Homo sapiens, UniProt P36888); assay: Inhibition of FLT3 (unknown origin)
T2 sequence (P36888 whole entry): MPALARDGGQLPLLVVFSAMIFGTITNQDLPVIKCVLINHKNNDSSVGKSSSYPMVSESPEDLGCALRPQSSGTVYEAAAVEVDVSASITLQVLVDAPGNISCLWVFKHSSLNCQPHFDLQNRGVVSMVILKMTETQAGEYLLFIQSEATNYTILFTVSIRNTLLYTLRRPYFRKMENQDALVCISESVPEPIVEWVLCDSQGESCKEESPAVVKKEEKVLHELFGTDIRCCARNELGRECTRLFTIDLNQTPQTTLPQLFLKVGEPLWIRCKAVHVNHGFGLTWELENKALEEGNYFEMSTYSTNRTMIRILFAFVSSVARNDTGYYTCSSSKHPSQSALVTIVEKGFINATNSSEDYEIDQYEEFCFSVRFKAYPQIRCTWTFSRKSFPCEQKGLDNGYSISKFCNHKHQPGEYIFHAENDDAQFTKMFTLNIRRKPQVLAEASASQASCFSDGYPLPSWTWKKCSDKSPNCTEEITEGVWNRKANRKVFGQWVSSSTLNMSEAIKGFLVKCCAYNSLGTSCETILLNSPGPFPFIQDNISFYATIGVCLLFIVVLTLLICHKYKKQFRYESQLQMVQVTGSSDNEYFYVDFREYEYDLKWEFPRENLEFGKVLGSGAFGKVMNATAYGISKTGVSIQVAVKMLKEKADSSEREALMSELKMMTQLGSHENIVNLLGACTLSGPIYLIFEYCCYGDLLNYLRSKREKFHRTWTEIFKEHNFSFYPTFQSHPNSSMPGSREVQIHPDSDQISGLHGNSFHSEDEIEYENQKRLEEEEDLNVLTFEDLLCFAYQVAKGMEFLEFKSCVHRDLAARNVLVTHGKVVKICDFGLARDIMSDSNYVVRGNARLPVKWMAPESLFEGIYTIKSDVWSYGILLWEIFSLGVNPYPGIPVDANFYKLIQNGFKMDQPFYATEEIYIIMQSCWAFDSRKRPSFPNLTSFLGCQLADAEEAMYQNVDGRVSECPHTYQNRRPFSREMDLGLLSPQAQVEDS

[3] = molecular target: Vascular endothelial growth factor receptor 2 (Homo sapiens, UniProt P35968); assay: Inhibition of KDR (unknown origin)
Aurora kinase A = molecular target: T3, Aurora kinase A (Homo sapiens, UniProt O14965); assay: Inhibition of AURKA (unknown origin)
T3 sequence (O14965 whole entry): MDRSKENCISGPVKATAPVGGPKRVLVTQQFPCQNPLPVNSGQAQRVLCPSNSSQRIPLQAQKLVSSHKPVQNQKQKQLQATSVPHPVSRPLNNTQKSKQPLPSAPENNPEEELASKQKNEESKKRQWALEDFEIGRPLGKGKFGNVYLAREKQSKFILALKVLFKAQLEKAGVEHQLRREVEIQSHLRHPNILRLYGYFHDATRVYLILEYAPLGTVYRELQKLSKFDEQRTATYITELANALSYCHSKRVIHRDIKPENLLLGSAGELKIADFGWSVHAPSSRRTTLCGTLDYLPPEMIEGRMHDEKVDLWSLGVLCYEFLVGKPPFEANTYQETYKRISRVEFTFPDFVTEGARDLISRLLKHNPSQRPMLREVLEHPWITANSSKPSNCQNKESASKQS

Aurora kinase B = Aurora kinase B (Homo sapiens, UniProt Q96GD4); assay: Inhibition of AURKB (unknown origin)
MCF7 = assay: Growth inhibition of human MCF7; format: functional
HCC1954 = assay: Growth inhibition of human HCC1954; format: functional
[4] = Lipophilicity, log D of the compound at pH 7.4; format: physicochemical; conditions: buffer
CYP2C9 = CYP2C9 (Homo sapiens, UniProt P11712); assay: Inhibition of CYP2C9 (unknown origin) at 1 uM; format: ADME
CYP2C19 = CYP2C19 (Homo sapiens, UniProt P33261); assay: Inhibition of CYP2C19 (unknown origin) at 1 uM; format: ADME
CYP3A4 = CYP3A4 (Homo sapiens, UniProt P08684); assay: Inhibition of CYP3A4 (unknown origin) at 1 uM; format: ADME
[5] = Half life in mouse microsomes; format: ADME, Microsome
[6] = Half life in human microsomes; format: ADME, Microsome
[7] = Cmax in mouse at 25 mg/kg, po; format: ADME, organism-based; design: dose 25 mg/kg, route oral; conditions: in vivo, read-out: Cmax
[8] = AUC in mouse at 25 mg/kg, po; format: ADME, organism-based; conditions: in vivo
[9] = Clearance in rat at 1 mg/kg, iv; format: ADME, organism-based; conditions: in vivo
[10] = Half life in rat at 1 mg/kg, iv; format: ADME, organism-based; conditions: in vivo
[11] = AUC in rat at 1 mg/kg, iv; format: ADME, organism-based; conditions: in vivo
[12] = AUC in rat at 5 mg/kg, po; format: ADME, organism-based; conditions: in vivo, read-out: AUC
[13] = Oral bioavailability in rat at 5 mg/kg; format: ADME, organism-based; conditions: in vivo
MDA-MB-468 [14] = assay: Growth inhibition of human MDA-MB-468 cells; format: functional
MDA-MB-468 [15] = assay: Antitumor activity against human MDA-MB-468 cells xenografted in mouse assessed as tumor growth inhibition at 37.5 mg/kg, po qd for 21 days measured on day 21 post last dose relative to vehicle control; format: functional; conditions: MDA-MB-468, po, 504 h, read-out: TGI
[16] = Toxicity in mouse xenografted with human MDA-MB-468 cells assessed as body weight loss at 37.5 mg/kg, po qd for 21 days measured during compound dosing relative to vehicle control; format: organism-based; conditions: in vivo, 504 h
[17] = Dissociation constant, pKa of the compound; format: physicochemical

Chain of CYP3A4 (P08684 whole entry): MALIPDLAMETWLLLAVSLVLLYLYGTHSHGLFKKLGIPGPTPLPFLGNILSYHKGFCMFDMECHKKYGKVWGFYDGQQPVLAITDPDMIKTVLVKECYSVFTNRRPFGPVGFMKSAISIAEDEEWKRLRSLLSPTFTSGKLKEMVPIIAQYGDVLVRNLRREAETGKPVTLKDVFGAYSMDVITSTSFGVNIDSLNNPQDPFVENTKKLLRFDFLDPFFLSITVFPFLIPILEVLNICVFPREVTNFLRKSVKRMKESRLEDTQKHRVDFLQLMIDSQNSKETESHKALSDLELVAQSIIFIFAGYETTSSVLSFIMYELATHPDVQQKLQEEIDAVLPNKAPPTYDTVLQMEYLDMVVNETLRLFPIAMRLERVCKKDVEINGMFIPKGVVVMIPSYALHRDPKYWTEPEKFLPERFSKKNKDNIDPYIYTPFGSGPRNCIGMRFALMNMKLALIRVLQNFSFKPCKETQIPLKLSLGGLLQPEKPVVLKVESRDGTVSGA
Chain of CYP2C9 (P11712 whole entry): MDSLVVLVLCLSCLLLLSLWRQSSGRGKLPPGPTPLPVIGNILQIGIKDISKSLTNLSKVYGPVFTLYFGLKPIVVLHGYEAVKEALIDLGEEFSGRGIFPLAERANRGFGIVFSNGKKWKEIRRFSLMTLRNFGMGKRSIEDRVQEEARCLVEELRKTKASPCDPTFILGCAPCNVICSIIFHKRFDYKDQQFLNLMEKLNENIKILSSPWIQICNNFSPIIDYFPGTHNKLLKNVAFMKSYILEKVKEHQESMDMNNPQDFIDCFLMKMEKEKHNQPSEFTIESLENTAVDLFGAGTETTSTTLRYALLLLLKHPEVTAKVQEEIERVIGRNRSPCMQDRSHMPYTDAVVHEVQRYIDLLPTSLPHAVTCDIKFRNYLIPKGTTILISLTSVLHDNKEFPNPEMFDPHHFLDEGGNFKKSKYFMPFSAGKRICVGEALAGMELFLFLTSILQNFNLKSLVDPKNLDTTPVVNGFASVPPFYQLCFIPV
Chain of Aurora kinase B (Q96GD4 whole entry): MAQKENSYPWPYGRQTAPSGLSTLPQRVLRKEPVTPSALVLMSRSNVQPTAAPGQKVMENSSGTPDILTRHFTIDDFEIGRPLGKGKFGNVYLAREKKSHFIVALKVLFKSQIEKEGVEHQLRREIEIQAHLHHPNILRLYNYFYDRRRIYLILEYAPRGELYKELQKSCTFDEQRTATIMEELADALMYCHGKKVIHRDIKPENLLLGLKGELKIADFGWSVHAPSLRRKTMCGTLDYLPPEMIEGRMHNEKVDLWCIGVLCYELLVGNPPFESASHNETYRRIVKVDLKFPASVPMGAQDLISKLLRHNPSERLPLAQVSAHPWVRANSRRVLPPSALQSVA
Chain of CYP2C19 (P33261 whole entry): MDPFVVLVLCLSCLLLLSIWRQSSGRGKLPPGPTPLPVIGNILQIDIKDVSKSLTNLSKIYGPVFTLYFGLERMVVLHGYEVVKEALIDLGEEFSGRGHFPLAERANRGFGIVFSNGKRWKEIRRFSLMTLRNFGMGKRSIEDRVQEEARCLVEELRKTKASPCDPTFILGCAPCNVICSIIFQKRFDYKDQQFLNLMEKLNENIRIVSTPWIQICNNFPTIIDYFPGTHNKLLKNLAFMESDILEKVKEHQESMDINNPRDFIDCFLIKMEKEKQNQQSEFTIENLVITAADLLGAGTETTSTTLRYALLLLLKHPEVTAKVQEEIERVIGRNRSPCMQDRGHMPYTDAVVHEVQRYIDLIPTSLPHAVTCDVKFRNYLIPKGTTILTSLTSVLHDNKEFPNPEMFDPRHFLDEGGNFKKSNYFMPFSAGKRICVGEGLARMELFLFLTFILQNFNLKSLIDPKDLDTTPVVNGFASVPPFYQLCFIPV
Chain of Vascular endothelial growth factor receptor 2 (P35968 whole entry): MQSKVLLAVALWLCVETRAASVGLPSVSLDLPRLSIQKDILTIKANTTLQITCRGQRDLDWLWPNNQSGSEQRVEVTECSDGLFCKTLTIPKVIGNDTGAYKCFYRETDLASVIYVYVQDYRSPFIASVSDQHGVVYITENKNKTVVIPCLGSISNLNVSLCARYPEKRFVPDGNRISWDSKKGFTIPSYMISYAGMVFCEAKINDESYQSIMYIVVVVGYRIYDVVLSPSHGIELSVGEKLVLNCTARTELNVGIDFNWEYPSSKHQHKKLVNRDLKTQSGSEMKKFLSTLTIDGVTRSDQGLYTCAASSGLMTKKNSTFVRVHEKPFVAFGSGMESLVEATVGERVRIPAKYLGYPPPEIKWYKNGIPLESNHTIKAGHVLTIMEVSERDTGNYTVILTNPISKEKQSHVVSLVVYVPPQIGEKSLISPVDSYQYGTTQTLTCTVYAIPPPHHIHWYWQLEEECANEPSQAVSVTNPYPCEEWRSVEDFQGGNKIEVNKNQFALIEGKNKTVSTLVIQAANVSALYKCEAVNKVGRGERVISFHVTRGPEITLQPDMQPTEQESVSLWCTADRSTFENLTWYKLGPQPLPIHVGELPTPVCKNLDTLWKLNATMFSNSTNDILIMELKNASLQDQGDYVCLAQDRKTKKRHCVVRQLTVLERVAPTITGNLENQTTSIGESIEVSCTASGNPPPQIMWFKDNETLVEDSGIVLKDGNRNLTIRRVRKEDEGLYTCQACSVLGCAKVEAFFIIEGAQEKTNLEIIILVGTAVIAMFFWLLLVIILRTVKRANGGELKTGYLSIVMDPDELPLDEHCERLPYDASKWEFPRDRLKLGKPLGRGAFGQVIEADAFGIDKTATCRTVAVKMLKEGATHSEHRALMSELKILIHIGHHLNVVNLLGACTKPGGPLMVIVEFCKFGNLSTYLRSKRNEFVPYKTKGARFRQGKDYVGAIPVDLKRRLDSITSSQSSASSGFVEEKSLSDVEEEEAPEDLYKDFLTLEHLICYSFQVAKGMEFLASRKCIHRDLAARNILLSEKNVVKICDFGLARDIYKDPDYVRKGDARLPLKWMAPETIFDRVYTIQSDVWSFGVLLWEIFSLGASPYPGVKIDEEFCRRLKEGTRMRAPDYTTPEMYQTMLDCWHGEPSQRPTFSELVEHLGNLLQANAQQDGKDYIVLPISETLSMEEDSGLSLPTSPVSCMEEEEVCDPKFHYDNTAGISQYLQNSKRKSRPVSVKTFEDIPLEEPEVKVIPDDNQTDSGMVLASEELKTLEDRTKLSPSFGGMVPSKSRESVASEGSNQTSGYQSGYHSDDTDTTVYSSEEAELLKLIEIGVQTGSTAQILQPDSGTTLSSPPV

Row | IC50 [1] [nM] | IC50 [2] [nM] | IC50 (Aurora kinase A) [nM] | IC50 (Aurora kinase B) [nM] | GI50 (MCF7) [nM] | GI50 (HCC1954) [nM] | logD [4] | inhibition at 1 µM (CYP2C9) [%] | inhibition at 1 µM (CYP2C19) [%] | inhibition at 1 µM (CYP3A4) [%] | half-life [5] [min] | half-life [6] [min] | Cmax [7] [ng/mL] | AUC [8] [ng·h/mL] | clearance [9] [mL/min/kg] | half-life [10] [min] | AUC [11] [ng·h/mL] | AUC [12] [ng·h/mL] | bioavailability [13] [%] | GI50 (MDA-MB-468 [14]) [nM] | SMILES | also measured
1 | 0.69 | 97 | > 1000 | 10 | 100 | 3300 | 3.3 | 34 | 30 | 6 | 8 | 20 | 71 | 140 | 63.3 | 96 | 270 | 140 | 10 | – | COc1ccc2c(c1)[C@]1(C[C@H]1c1ccc3c(-c4ccc(N5CCN(C)CC5)nc4)n[nH]c3c1)C(=O)N2 | IC50 [3]: 14000 nM
2 | 0.94 | 45 | > 1000 | 6.9 | 1 | 1400 | 4 | 35 | 33 | 3 | 9 | 19 | 710 | 1830 | 68.3 | 78 | 270 | 260 | 22 | 15 | COc1ccc2c(c1)[C@]1(C[C@H]1c1ccc3c(-c4ccc(N5CCN(C)CC5)cc4)n[nH]c3c1)C(=O)N2 | IC50 [3]: 9400 nM; inhibition in vivo at 37.5 mg/kg (MDA-MB-468 [15]): 96%; Activity [16]: < 20%
3 | 1.6 | 62 | > 1000 | 8.5 | 6.3 | 240 | 4.8 | 37 | 60 | 6 | 15 | > 60 | 1100 | 3000 | 55 | 96 | 310 | 310 | 11 | 31 | CCN1CCN(c2ccc(-c3n[nH]c4cc([C@@H]5C[C@@]56C(=O)Nc5ccc(OC)cc56)ccc34)cc2)CC1 | inhibition in vivo at 37.5 mg/kg (MDA-MB-468 [15]): 48%; Activity [16]: < 20%
4 | 1.5 | 200 | – | – | 150 | 1420 | 4 | – | – | – | – | – | – | – | – | – | – | – | – | 220 | COc1ccc2c(c1)[C@]1(C[C@H]1c1ccc3c(-c4ccc(C5(F)CCN(C)CC5)cc4)n[nH]c3c1)C(=O)N2 | pKa [17]: 7.7
